Measured values as given in DBAASP.
Converted amounts (≈) assume the structure as drawn.

Columns and labels:
Experiment in all cases: ≥ marks a high value that may be exact or a test limit, other limits are often not marked, values filed in µg/mL are converted to µM
[1] = system: Pseudomonas aeruginosa ATCC 27853
Rhizoctonia solani = system: Rhizoctonia solani
[2] = system: Pectobacterium carotovorum
[3] = system: Pseudomonas syringae pv. tabaci
[4] = system: Bacillus subtilis ATCC 23857
[5] = system: Xanthomonas campestris pv. citri
[6] = system: Escherichia coli ATCC 25922
[7] = system: Bacillus cereus ATCC 14579
[8] = system: Fusarium oxysporum f.sp. vasinfectum
[9] = system: Cryptococcus neoformans ATCC 28957
Fusarium oxysporum = system: Fusarium oxysporum
[10] = system: Staphylococcus aureus ATCC 25923
Trichoderma asperellum = system: Trichoderma asperellum
Fusarium solani = system: Fusarium solani
Ramulariopsis gossypii = system: Ramulariopsis gossypii
[11] = system: Candida albicans ATCC 90028
[12] = system: Acinetobacter calcoaceticus
Staphylococcus aureus = system: Staphylococcus aureus
Streptococcus agalactiae = system: Streptococcus agalactiae
Pseudomonas aeruginosa = system: Pseudomonas aeruginosa
Candida albicans = system: Candida albicans
[13] = system: Escherichia coli ATCC 35218
[14] = system: Salmonella enterica subsp. enterica serovar Typhi Vi+
[15] = system: Salmonella enterica subsp. enterica serovar Typhimurium ATCC 14028
[16] = system: Escherichia coli ATCC 11775
[17] = system: Escherichia coli CCARM 1238
[18] = system: Bacillus subtilis KCTC 1998
[19] = system: Trichosporon beigelii KCTC 7707
[20] = system: Staphylococcus aureus CCARM 3090
[21] = system: Salmonella typhimurium KCTC 1926
[22] = system: Pseudomonas aeruginosa 4891
[23] = system: Candida albicans KCTC 7270
[24] = system: Listeria monocytogenes KCTC 3710
[25] = system: Staphylococcus aureus CCARM 3518
[26] = system: Pseudomonas aeruginosa 4007
[27] = system: Escherichia coli CCARM 1229
Vibrio fluvialis = system: Vibrio fluvialis
Vibrio alginolyticus = system: Vibrio alginolyticus
Aeromonas hydrophila = system: Aeromonas hydrophila
Vibrio parahaemolyticus = system: Vibrio parahaemolyticus
Escherichia coli = system: Escherichia coli

| SMILES | MIC [1] | MIC [2] | MIC [3] | MIC [4] | MIC [5] | MIC [6] | MIC [7] | MIC [8] | MIC [9] | MIC (Fusarium oxysporum) | MIC [10] | MIC (Trichoderma asperellum) | MIC (Fusarium solani) | MIC (Ramulariopsis gossypii) | MIC [11] | MIC (Staphylococcus aureus) | also measured |
| --- | --- | --- | --- | --- | --- | --- | --- | --- | --- | --- | --- | --- | --- | --- | --- | --- | --- |
| CC[C@H](C)[C@H](NC(=O)[C@@H]1CCCN1C(=O)[C@H](CCCCN)NC(=O)[C@@H]1CCCN1C(=O)[C@H](Cc1cnc[nH]1)NC(=O)[C@H](CO)NC(=O)[C@@H](NC(=O)[C@@H]1CCCN1C(=O)[C@H](CCCN=C(N)N)NC(=O)[C@@H]1CCCN1C(=O)[C@H](CO)NC(=O)[C@H](Cc1ccc(O)cc1)NC(=O)[C@@H]1CCCN1C(=O)[C@H](CCCN=C(N)N)NC(=O)[C@@H]1CCCN1C(=O)[C@H](CCCCN)NC(=O)CN)[C@@H](C)O)C(=O)N[C@@H](CCCN=C(N)N)C(=O)N[C@H](C(=O)O)C(C)C [GKPRPYSPRPTSHPKPIRV] | – | – | – | – | – | 7 µM (≈ 15.2 µg/mL) | – | – | – | – | – | – | – | – | – | – | MIC [13]: 3.5 µM (≈ 7.6 µg/mL); MIC [14]: 30 µM (≈ 65.1 µg/mL); MIC [15]: 25 µM (≈ 54.3 µg/mL); MIC [16]: 6 µM (≈ 13 µg/mL) |
| CSCC[C@H](NC(=O)[C@H](Cc1ccccc1)NC(=O)CNC(=O)[C@H](Cc1cnc[nH]1)NC(=O)[C@H](CC(C)C)NC(=O)[C@H](CO)NC(=O)CN)C(=O)N[C@@H](Cc1ccc(O)cc1)C(=O)N[C@@H](CCCCN)C(=O)N[C@@H](Cc1ccc(O)cc1)C(=O)N[C@@H](CC(C)C)C(=O)N[C@@H](CCCCN)C(=O)N[C@@H](CC(N)=O)C(=O)N[C@@H](CCSC)C(=O)N[C@H](C(=O)N[C@@H](CC(C)C)C(=O)N[C@H](C(=O)N[C@@H](CC(C)C)C(=O)N[C@@H](Cc1ccccc1)C(N)=O)[C@@H](C)O)C(C)C [GSLHGFMYKYLKNMVLTLF] | 32 µM (≈ 72.4 µg/mL) | ≥ 256 µM | 16 µM (≈ 36.2 µg/mL) | 16 µM (≈ 36.2 µg/mL) | ≥ 128 µM | 64 µM (≈ 145 µg/mL) | ≥ 128 µM | 8 µM (≈ 18.1 µg/mL) | 16 µM (≈ 36.2 µg/mL) | 16 µM (≈ 36.2 µg/mL) | 16 µM (≈ 36.2 µg/mL) | 8 µM (≈ 18.1 µg/mL) | ≥ 32 µM | 4 µM (≈ 9.05 µg/mL) | 16 µM (≈ 36.2 µg/mL) | – | – |
| CC[C@H](C)[C@H](NC(=O)[C@H](Cc1cnc[nH]1)NC(=O)[C@H](C)NC(=O)[C@@H](NC(=O)[C@H](CC(N)=O)NC(=O)[C@H](Cc1cnc[nH]1)NC(=O)[C@H](CC(C)C)NC(=O)[C@H](C)NC(=O)CNC(=O)[C@H](Cc1ccc(O)cc1)NC(=O)[C@@H](N)Cc1ccc(O)cc1)[C@@H](C)O)C(=O)N[C@H](C(=O)N[C@@H](CC(C)C)C(=O)NCC(=O)N[C@@H](CCCN=C(N)N)C(=O)O)C(C)C [YYGALHNTAHIVLGR] | – | – | – | – | – | – | – | – | – | – | – | – | – | – | – | > 148 µM | MIC (Vibrio fluvialis): ≥ 148 µM; MIC (Vibrio alginolyticus): 9.26 µM (≈ 15.6 µg/mL); MIC (Aeromonas hydrophila): ≥ 74.2 µM; MIC (Vibrio parahaemolyticus): ≥ 148 µM; MIC (Escherichia coli): 74.2 µM (≈ 125 µg/mL) |

Further lines, with some results ahead:

| MIC [1] | MIC [2] | MIC [3] | MIC [4] | MIC [5] | MIC [6] | MIC [7] | MIC [8] | MIC [9] | MIC (Fusarium oxysporum) | MIC [10] | MIC (Trichoderma asperellum) | MIC (Fusarium solani) | MIC (Ramulariopsis gossypii) | MIC [11] | MIC (Staphylococcus aureus) | SMILES | also measured |
| --- | --- | --- | --- | --- | --- | --- | --- | --- | --- | --- | --- | --- | --- | --- | --- | --- | --- |
| 32 µM (≈ 72.4 µg/mL) | 1 µM (≈ 2.26 µg/mL) | 2 µM (≈ 4.53 µg/mL) | 1 µM (≈ 2.26 µg/mL) | 4 µM (≈ 9.05 µg/mL) | 4 µM (≈ 9.05 µg/mL) | 4 µM (≈ 9.05 µg/mL) | 1.67 µM (≈ 3.78 µg/mL) | 2.67 µM (≈ 6.04 µg/mL) | 4 µM (≈ 9.05 µg/mL) | 1 µM (≈ 2.26 µg/mL) | 4 µM (≈ 9.05 µg/mL) | 2 µM (≈ 4.53 µg/mL) | 2 µM (≈ 4.53 µg/mL) | 4 µM (≈ 9.05 µg/mL) | – | CSCC[C@H](NC(=O)[C@H](CCCCN)NC(=O)[C@H](Cc1ccc(O)cc1)NC(=O)[C@H](C)NC(=O)[C@H](CCC(=O)O)NC(=O)[C@H](CC(C)C)NC(=O)[C@H](CC(C)C)NC(=O)[C@H](CCCN=C(N)N)NC(=O)[C@H](CC(N)=O)NC(=O)[C@H](C)N)C(=O)N[C@@H](CC(C)C)C(=O)N[C@@H](CC(C)C)C(=O)N[C@@H](CCCCN)C(=O)N[C@@H](Cc1ccccc1)C(=O)N[C@@H](CC(C)C)C(=O)NCC(=O)N[C@@H](CC(N)=O)C(=O)N[C@@H](CC(C)C)C(=O)N[C@@H](CCCN=C(N)N)C(N)=O [ANRLLEAYKMLLKFLGNLR] | MIC (Rhizoctonia solani): 4 µM (≈ 9.05 µg/mL) |
| – | – | – | – | – | – | – | – | – | – | – | – | – | – | – | 8.2 µM (≈ 15.9 µg/mL) | CC[C@H](C)[C@H](NC(=O)[C@H](C)NC(=O)[C@H](Cc1cnc[nH]1)NC(=O)[C@@H]1CCCN1C(=O)[C@@H](NC(=O)[C@H](CC(C)C)NC(=O)[C@H](CO)NC(=O)[C@H](CC(C)C)NC(=O)[C@@H](N)Cc1ccccc1)[C@@H](C)CC)C(=O)N[C@@H](CC(N)=O)C(=O)N[C@@H](C)C(=O)N[C@H](C(=O)N[C@@H](CO)C(=O)N[C@@H](C)C(=O)N[C@@H](CC(C)C)C(=O)N[C@@H](C)C(=O)N[C@@H](CC(N)=O)C(=O)N[C@@H](Cc1cnc[nH]1)C(=O)NCC(N)=O)C(C)C [FLSLIPHAINAVSALANHG] | MIC [12]: 4.1 µM (≈ 7.97 µg/mL); MIC (Streptococcus agalactiae): 4.1 µM (≈ 7.97 µg/mL); MIC (Pseudomonas aeruginosa): 32.8 µM (≈ 63.8 µg/mL); MIC (Candida albicans): 8.2 µM (≈ 15.9 µg/mL) |
| 2 µM (≈ 5.4 µg/mL) | – | – | – | – | 4 µM (≈ 10.8 µg/mL) | – | – | – | – | 8 µM (≈ 21.6 µg/mL) | – | – | – | – | – | CC[C@H](C)[C@H](NC(=O)CNC(=O)[C@H](CCC(N)=O)NC(=O)[C@H](Cc1ccccc1)NC(=O)[C@@H](NC(=O)[C@H](CCCCN)NC(=O)[C@H](CCCCN)NC(=O)[C@H](CC(C)C)NC(=O)[C@H](C)NC(=O)[C@H](CC(N)=O)NC(=O)[C@H](CC(C)C)NC(=O)CN)C(C)C)C(=O)N[C@@H](Cc1cnc[nH]1)C(=O)N[C@@H](CCC(=O)O)C(=O)N[C@@H](C)C(=O)N[C@H](C(=O)N[C@@H](CCCCN)C(=O)N[C@@H](CCCCN)C(=O)N[C@H](C(=O)N[C@@H](CC(N)=O)C(=O)N[C@@H](CC(N)=O)C(=O)N[C@@H](Cc1cnc[nH]1)C(=O)N[C@H](C(=O)N[C@@H](CCC(N)=O)C(N)=O)C(C)C)[C@@H](C)CC)[C@@H](C)CC [GLNALKKVFQGIHEAIKKINNHVQ] | MIC [17]: 4 µM (≈ 10.8 µg/mL); MIC [18]: 8 µM (≈ 21.6 µg/mL); MIC [19]: ≥ 32 µM; MIC [20]: 8 µM (≈ 21.6 µg/mL); MIC [21]: 4 µM (≈ 10.8 µg/mL); MIC [22]: 8 µM (≈ 21.6 µg/mL); MIC [23]: ≥ 32 µM; MIC [24]: 8 µM (≈ 21.6 µg/mL); MIC [25]: 8 µM (≈ 21.6 µg/mL); MIC [26]: 2 µM (≈ 5.4 µg/mL); MIC [27]: 4 µM (≈ 10.8 µg/mL) |
